“And” between values parts separate entries of the source, which are not always exact repeats. Identical values can stand only once. Toxic doses and inconclusive results are not listed. How the source made its calls: active means survival T/C of 150% or more; inactive means T/C below 125% in these data.
Tested on: CD2F1 mice, L1210 leukemia ip, survival T/C
Experiment: NCI In Vivo Anticancer Drug Screen. Data for tumor model L1210 Leukemia (intraperitoneal) in CD2F1 (CDF1) mice
Settings: endpoint: mean survival time, higher = longer survival
How it was run: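 Tumor-bearing mice (transplanted tumor) were split into treated and vehicle control groups, and the measured endpoint of each treated group was divided by that of its vehicle controls.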

[1] = dose: 50.0 mg/kg/injection, schedule: Q01DX009 (ip), vehicle: Klucel (hydroxypropylcellulose) (HPC)
[2] = dose: 100.0 mg/kg/injection, schedule: Q01DX009 (ip), vehicle: Klucel (hydroxypropylcellulose) (HPC)
[3] = dose: 200.0 mg/kg/injection, schedule: Q01DX009 (ip), vehicle: Klucel (hydroxypropylcellulose) (HPC)
[4] = dose: 25.0 mg/kg/injection, schedule: Q01DX009 (ip), vehicle: saline with Tween-80
[5] = dose: 50.0 mg/kg/injection, schedule: Q01DX009 (ip), vehicle: saline with Tween-80
[6] = dose: 100.0 mg/kg/injection, schedule: Q01DX009 (ip), vehicle: saline with Tween-80
[7] = dose: 200.0 mg/kg/injection, schedule: Q01DX009 (ip), vehicle: saline with Tween-80
[8] = dose: 100.0 mg/kg/injection, schedule: Q04DX003 (ip), vehicle: saline with Tween-80
[9] = dose: 200.0 mg/kg/injection, schedule: Q04DX003 (ip), vehicle: saline with Tween-80
[10] = dose: 400.0 mg/kg/injection, schedule: Q01DX009 (ip), vehicle: saline with Tween-80
[11] = dose: 400.0 mg/kg/injection, schedule: Q04DX003 (ip), vehicle: saline with Tween-80
[12] = dose: 12.5 mg/kg/injection, schedule: Q01DX005 (ip), vehicle: distilled water + Tween-80
[13] = dose: 25.0 mg/kg/injection, schedule: Q01DX005 (ip), vehicle: distilled water + Tween-80
[14] = dose: 50.0 mg/kg/injection, schedule: Q01DX005 (ip), vehicle: distilled water + Tween-80
[15] = dose: 100.0 mg/kg/injection, schedule: Q01DX005 (ip), vehicle: distilled water + Tween-80
[16] = dose: 200.0 mg/kg/injection, schedule: Q01DX005 (ip), vehicle: distilled water + Tween-80
[17] = dose: 100.0 mg/kg/injection, schedule: Q01DX001 (ip), vehicle: saline with Tween-80
[18] = dose: 200.0 mg/kg/injection, schedule: Q01DX001 (ip), vehicle: saline with Tween-80
[19] = dose: 400.0 mg/kg/injection, schedule: Q01DX001 (ip), vehicle: saline with Tween-80

Measured: T/C

CCOC(=O)C1(C(=O)OCC)C(C)CC(OCC)N1C(=O)c1cc2c(cc1[N+](=O)[O-])OCO2 (stereo not drawn)
inactive: dose: 100.0 mg/kg/injection, schedule: Q01DX001 (ip), vehicle: Klucel (hydroxypropylcellulose) (HPC) 100 % of control | dose: 200.0 mg/kg/injection, schedule: Q01DX001 (ip), vehicle: Klucel (hydroxypropylcellulose) (HPC) 100 % of control | dose: 400.0 mg/kg/injection, schedule: Q01DX001 (ip), vehicle: Klucel (hydroxypropylcellulose) (HPC) 100 % of control

CC(=O)ON1C(=O)C=CC1=O
inactive: dose: 25.0 mg/kg/injection, schedule: Q01DX009 (ip), vehicle: Klucel (hydroxypropylcellulose) (HPC) 95 % of control | [1] 90 % of control

O=C1OCC2C1Cc1cc(O)c(O)cc1C2c1ccc(O)c(O)c1 (stereo not drawn)
inactive: [1] 96 % of control | [2] 101 % of control | [3] 104 % of control

CCCCCCCCC[n+]1cccc(C(N)=O)c1
inactive: [4] 97 % of control | [5] 101 % of control | [6] 95 % of control

O=C(O)/C=C/C(=O)Nc1ccc(Cl)cc1
inactive: [6] 104 % of control | [7] 89 % of control

Cc1ccc(Nc2nc(N)nc3nc(N)c(C(N)=O)nc23)cc1C
inactive: dose: 12.5 mg/kg/injection, schedule: Q04DX002 (ip), vehicle: Klucel (hydroxypropylcellulose) (HPC) 91 % of control | dose: 25.0 mg/kg/injection, schedule: Q04DX002 (ip), vehicle: Klucel (hydroxypropylcellulose) (HPC) 86 % of control | dose: 50.0 mg/kg/injection, schedule: Q04DX002 (ip), vehicle: Klucel (hydroxypropylcellulose) (HPC) 91 % of control

O=C(c1ccccc1)C1(O)CCCCC1
inactive: dose: 50.0 mg/kg/injection, schedule: Q01DX009 (ip), vehicle: saline sonified 97 % of control | dose: 100.0 mg/kg/injection, schedule: Q01DX009 (ip), vehicle: saline sonified 105 % of control | dose: 200.0 mg/kg/injection, schedule: Q01DX009 (ip), vehicle: saline sonified 97 % of control

COc1ccc(SC(=O)N(C)C)cc1
inactive: [4] 100 % of control | [5] 103 % of control | [6] 95 % of control and 98 % of control

O=C(CC(=O)c1ccc(Cl)cc1)Cc1ccc2ccccc2n1
inactive: dose: 100.0 mg/kg/injection, schedule: Q04DX002 (ip), vehicle: saline with Tween-80 97 % of control | dose: 200.0 mg/kg/injection, schedule: Q04DX002 (ip), vehicle: saline with Tween-80 97 % of control | dose: 400.0 mg/kg/injection, schedule: Q04DX002 (ip), vehicle: saline with Tween-80 97 % of control

O=C(O)C1C2OC3C(OC(=O)C31)C2Br (stereo not drawn)
inactive: [6] 96 % of control | [8] 91 % of control | [7] 93 % of control | [9] 89 % of control | [10] 91 % of control | [11] 89 % of control

Cn1c(CC(O)(C(F)(F)Cl)C(F)(F)Cl)cc(=O)n1-c1ccccc1
inactive: dose: 50.0 mg/kg/injection, schedule: Q04DX003 (ip), vehicle: saline with Tween-80 101 % of control | [6] 97 % of control | [8] 97 % of control | [7] 97 % of control | [9] 97 % of control | [11] 92 % of control

CC12CCC(=O)C1O2 (stereo not drawn)
inactive: dose: 12.5 mg/kg/injection, schedule: Q04DX002 (ip), vehicle: saline with Tween-80 103 % of control | dose: 25.0 mg/kg/injection, schedule: Q04DX002 (ip), vehicle: saline with Tween-80 100 % of control | dose: 50.0 mg/kg/injection, schedule: Q04DX002 (ip), vehicle: saline with Tween-80 100 % of control

O=c1nc(/C=C(\O)c2ccccc2)ccn1C1OC(CO)C(O)C1O (stereo not drawn)
inactive: [12] 105 % of control | [13] 94 % of control | [14] 91 % of control | [15] 94 % of control | [16] 98 % of control

COC(=O)C(=O)Cc1cc(OC)cc(=O)o1
inactive: [8] 100 % of control | [9] 101 % of control | [11] 95 % of control

CC(=O)NC(CO)C1C(CO)OC(n2ccc(=O)[nH]c2=O)C1O (stereo not drawn)
inactive: dose: 6.25 mg/kg/injection, schedule: Q01DX005 (ip), vehicle: water 101 % of control | dose: 12.5 mg/kg/injection, schedule: Q01DX005 (ip), vehicle: water 101 % of control | dose: 25.0 mg/kg/injection, schedule: Q01DX005 (ip), vehicle: water 98 % of control | dose: 50.0 mg/kg/injection, schedule: Q01DX005 (ip), vehicle: water 103 % of control | dose: 100.0 mg/kg/injection, schedule: Q01DX005 (ip), vehicle: water 96 % of control

Cn1c(=O)c2c(nc(NN)n2C)n(C)c1=O
inactive: [12] 100 % of control | [13] 100 % of control | [14] 103 % of control | [15] 89 % of control | [16] 101 % of control

C1CN(SSN2CCOCC2)CCO1
inactive: [8] 100 % of control | [9] 92 % of control

C/C=C1\C(=O)O[C@@]23C=C[C@H]4C(C(=O)OC)=CO[C@@H](O[C@H]12)[C@H]43
inactive: dose: 50.0 mg/kg/injection, schedule: Q01DX001 (ip), vehicle: saline 95 % of control

CN(C)c1ccc([N+](=O)[O-])cc1[N+](=O)[O-]
inactive: dose: 62.5 mg/kg/injection, schedule: Q01DX001 (ip), vehicle: Klucel (hydroxypropylcellulose) (HPC) 94 % of control | dose: 125.0 mg/kg/injection, schedule: Q01DX001 (ip), vehicle: Klucel (hydroxypropylcellulose) (HPC) 94 % of control | dose: 250.0 mg/kg/injection, schedule: Q01DX001 (ip), vehicle: Klucel (hydroxypropylcellulose) (HPC) 92 % of control | dose: 500.0 mg/kg/injection, schedule: Q01DX001 (ip), vehicle: Klucel (hydroxypropylcellulose) (HPC) 102 % of control

CC1=C(c2ccccc2)C(=O)OC1=O
inactive: dose: 100.0 mg/kg/injection, schedule: Q04DX002 (ip), vehicle: other 98 % of control | dose: 200.0 mg/kg/injection, schedule: Q04DX002 (ip), vehicle: other 103 % of control | dose: 400.0 mg/kg/injection, schedule: Q04DX002 (ip), vehicle: other 107 % of control

O=C(O)c1ccc(SSc2ccc(C(=O)O)cn2)nc1
inactive: dose: 100.0 mg/kg/injection, schedule: Q01DX009 (ip), vehicle: saline 102 % of control | dose: 200.0 mg/kg/injection, schedule: Q01DX009 (ip), vehicle: saline 96 % of control | dose: 400.0 mg/kg/injection, schedule: Q01DX009 (ip), vehicle: saline 94 % of control

COc1ccc(CC2(C#N)c3ccccc3C=CN2C(=O)c2ccccc2)c([N+](=O)[O-])c1OC (stereo not drawn)
inactive: [17] 95 % of control | [18] 97 % of control | [19] 95 % of control

O=c1[nH]cnc2nc(SCc3ccc([N+](=O)[O-])cc3)[nH]c12
inactive: [1] 90 % of control | [2] 94 % of control | [3] 105 % of control

COC(=O)c1ccc(I)c([N+](=O)[O-])c1
inactive: [17] 98 % of control | [6] 102 % of control | [18] 104 % of control | [7] 102 % of control | [19] 97 % of control | [10] 103 % of control

Cc1ccc(S(=O)(=O)OCCC=C(c2ccccc2)c2ccccc2)cc1
inactive: [5] 101 % of control | [6] 101 % of control | [7] 96 % of control

[Cl][Pt+2][Cl].[NH-]CCN(CCN)CCN
inactive: dose: 12.5 mg/kg/injection, schedule: Q04DX003 (ip), vehicle: saline with Tween-80 97 % of control | dose: 25.0 mg/kg/injection, schedule: Q04DX003 (ip), vehicle: saline with Tween-80 98 % of control
